Measurements as given in patent US12065654B2, “Plants having increased tolerance to herbicides” (BASF SE, priority 2014, dated 2024).

Experiments:
Picrophilus HPPD = assay: HPPD activity assay; assay type: biochemical, Picrophilus torridus; details: HPPD enzyme Picrophilus
Method: (§1) The activity assay for HPPD is based on the analysis of homogentisic acid by reversed phase HPLC.
(§2) The assay mixture can contain 150 mM potassium phosphate buffer pH 7.0, 50 mM L-ascorbic acid, 100 μM Catalase (Sigma-Aldrich), 1 μM FeSO4 and 0.2 units of purified HPPD enzyme in a total volume of 505 μl. 1 unit is defined as the amount of enzyme that is required to produce 1 nmol of HGA per minute at 20° C.
(§3) The reaction is allowed to proceed for 45 min at room temperature. The reaction is stopped by the addition of 50 μl of 4.5 M phosphoric acid. The sample is filtered using a […] pore size PVDF filtration device. 5 μl of the cleared sample is analyzed on an UPLC HSS T3 column (particle size 1.8 μm, dimensions 2, 1×50 mm; Waters) by isocratic elution using 90% 20 mM NaH2PO4 pH 2.2, 10% methanol (v/v).
(§4) HGA is detected electrochemically at 750 mV (mode: DC; polarity: positive) and quantified by integrating peak areas (Empower software; Waters).
(§5) Inhibitors are dissolved in DMSO (dimethylsulfoxide) to a concentration of 0.5 mM. From this stock solution serial five-fold dilutions are prepared in DMSO, which are used in the assay. The respective inhibitor solution accounts for 1% of the assay volume. Thus, final inhibitor concentrations range from 5 μM to 320 pM, respectively. Activities are normalized by setting the uninhibited enzyme activity to 100%. IC50 values are calculated using non-linear regression.
(§6) Using methods which are described in the above examples or well known in the art, purified recombinant wild-type HPPD enzymes are characterized with respect to their kinetic properties and sensitivity towards HPPD inhibiting herbicides. Apparent michaelis constants (Km) and maximal reaction velocities (Vmax) are calculated by non-linear regression with the software GraphPad Prism 5 (GraphPad Software, La Jolla, USA) using a substrate inhibition model. […] Weighted means (by standard error) of Km and IC50 values are calculated from at least three independent experiments. The Cheng-Prusoff equation for competitive inhibition (Cheng, Y. C.; Prusoff, W. H. Biochem Pharmacol 1973, 22, 3099-3108) is used to calculate dissociation constants (Ki).
(§7) Field performance of the HPPD enzyme, which is used as a herbicide tolerance trait may depend not only on its lack of sensitivity towards HPPD inhibiting herbicides but also on its activity. To assess the potential performance of a herbicide tolerance trait a tolerance index (TI) is calculated using the following formula: […]
(§8) Easy comparison and ranking of each trait is enabled by normalizing tolerance indexes on Arabidopsis wild-type HPPD.

[1] = molecular target: T1, Arabidopsis HPPD (SEQ ID NO:53) (Arabidopsis thaliana, UniProt P93836); assay: HPPD activity assay (HPLC of homogentisic acid); assay type: biochemical; details: for Normalized tolerance index (TI): Arabidopsis HPPD variant Wild-type (reference, SEQ ID: 53); for TI normalized to Arabidopsis HPPD: HPPD enzyme Arabidopsis (reference); for TI (tolerance index): Arabidopsis HPPD, not normalized
T1 construct: His6 (N); made in house; host or cells: E. coli BL21 (DE3)
T1 sequence (P93836 1-445): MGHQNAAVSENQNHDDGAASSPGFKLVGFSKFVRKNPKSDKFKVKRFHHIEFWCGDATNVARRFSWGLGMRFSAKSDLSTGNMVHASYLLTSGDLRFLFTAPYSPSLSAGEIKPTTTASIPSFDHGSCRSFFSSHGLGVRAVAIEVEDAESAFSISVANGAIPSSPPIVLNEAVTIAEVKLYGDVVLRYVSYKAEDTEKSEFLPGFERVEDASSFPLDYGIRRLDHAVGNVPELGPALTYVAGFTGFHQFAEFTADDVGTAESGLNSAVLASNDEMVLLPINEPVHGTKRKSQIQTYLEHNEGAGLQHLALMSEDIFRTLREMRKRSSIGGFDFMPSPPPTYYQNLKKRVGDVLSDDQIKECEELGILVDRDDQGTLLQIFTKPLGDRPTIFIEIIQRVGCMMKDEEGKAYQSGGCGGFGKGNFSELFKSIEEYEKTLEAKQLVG
Method: as §1, §2, §3, §4, §5, §6, §7, §8

Hordeum HPPD R309K = molecular target: T2, Hordeum HPPD R309K (Hordeum vulgare, UniProt O48604, A164G/R146V/R147D/R148G/R309K); assay: HPPD activity assay, mutant; assay type: biochemical; details: Hordeum HPPD variant R309K; normalized on wild-type
T2 construct: subcloned into a modified pET24D (Novagen) expression vector resulting in N-terminally His-tagged expression constructs; His tag (N); made in house; host or cells: E. coli BL21 (DE3)
Method: as §1, §2, §3, §4, §5
(§9) Purified, mutant HPPD enzymes are obtained by the methods described above. Dose response and kinetic measurements are carried out using the described HPPD activity assay. Apparent michaelis constants (Km) and maximal reaction velocities (Vmax) are calculated by non-linear regression with the software GraphPad Prism 5 (GraphPad Software, La Jolla, USA) using a substrate inhibition model. […] Weighted means (by standard error) of K. and IC50 values are calculated from at least three independent experiments. The Cheng-Prusoff equation for competitive inhibition (Cheng, Y. C.; Prusoff, W. H. Biochem Pharmacol 1973, 22, 3099-3108) is used to calculate dissociation constants (Ki).
as §7, with “of the optimized HPPD enzyme,” for “of the HPPD enzyme,”
(§10) Easy comparison and ranking of each trait is enabled by normalizing tolerance indexes on the respective wild-type HPPD.

Hordeum HPPD L320Q = molecular target: T3, Hordeum HPPD L320Q (Hordeum vulgare, UniProt O48604, A164G/L320Q/R146V/R147D/R148G); assay: HPPD activity assay, mutant; assay type: biochemical; details: Hordeum HPPD variant L320Q; normalized on wild-type
T3 construct: His-tag (N); made in house; host or cells: E. coli BL21 (DE3)
Method: as §1, §2, §3, §4, §5, §9
as §7, with “of the optimized HPPD enzyme,” for “of the HPPD enzyme,”
as §10

Avena HPPD = assay: HPPD activity assay; assay type: biochemical, Avena sativa; details: HPPD enzyme Avena
Method: as §1, §2, §3, §4, §5, §6, §7, §8

[2] = molecular target: T4, Hordeum HPPD (SEQ ID NO:2) (Hordeum vulgare, UniProt O48604, A164G/R146V/R147D/R148G); assay: HPPD activity assay; assay type: biochemical; details: HPPD enzyme Hordeum
T4 construct: His-tag (N); made in house; host or cells: E. coli BL21 (DE3)

Kordia HPPD = assay: HPPD activity assay; assay type: biochemical; details: HPPD enzyme Kordia
Method: as §1, §2, §3, §4, §5, §6, §7, §8

Rhodococcus HPPD2 = assay: HPPD activity assay; assay type: biochemical; details: HPPD enzyme Rhodococcus HPPD2
Method: as §1, §2, §3, §4, §5, §6, §7, §8

Lolium HPPD = assay: HPPD activity assay; assay type: biochemical; details: HPPD enzyme Lolium
Method: as §1, §2, §3, §4, §5, §6, §7, §8

Rhodococcus HPPD1 = assay: HPPD activity assay; assay type: biochemical; details: HPPD enzyme Rhodococcus HPPD1
Method: as §1, §2, §3, §4, §5, §6, §7, §8

Synechococcus HPPD = assay: HPPD activity assay; assay type: biochemical; details: HPPD enzyme Synechococcus
Method: as §1, §2, §3, §4, §5, §6, §7, §8

[3] = molecular target: T4, Hordeum HPPD (SEQ ID NO:2); assay: HPPD activity assay; assay type: biochemical; details: for Normalized tolerance index (TI): Hordeum HPPD variant Wild-type (reference, SEQ ID NO: 2); for TI (tolerance index): Hordeum HPPD, not normalized
Method: as §1, §2, §3, §4, §5, §6, §7, §8

T2 sequence (O48604 whole entry R146V/R147D/R148G/A164G/R309K): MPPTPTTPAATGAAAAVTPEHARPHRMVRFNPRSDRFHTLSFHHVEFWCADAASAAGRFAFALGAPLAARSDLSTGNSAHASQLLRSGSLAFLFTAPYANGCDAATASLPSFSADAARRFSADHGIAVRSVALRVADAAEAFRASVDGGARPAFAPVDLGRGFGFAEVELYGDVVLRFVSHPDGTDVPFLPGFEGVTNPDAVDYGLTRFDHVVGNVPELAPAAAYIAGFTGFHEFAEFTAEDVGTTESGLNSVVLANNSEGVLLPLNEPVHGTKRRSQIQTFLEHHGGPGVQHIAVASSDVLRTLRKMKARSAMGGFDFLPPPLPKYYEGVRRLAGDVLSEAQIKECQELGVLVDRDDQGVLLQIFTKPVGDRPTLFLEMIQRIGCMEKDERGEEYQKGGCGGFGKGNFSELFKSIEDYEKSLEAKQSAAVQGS
T3 sequence (O48604 whole entry R146V/R147D/R148G/A164G/L320Q): as the sequence (O48604 whole entry R146V/R147D/R148G/A164G/R309K) above, with K309R, L320Q counted along it
T4 sequence (O48604 whole entry R146V/R147D/R148G/A164G): as the sequence (O48604 whole entry R146V/R147D/R148G/A164G/R309K) above, with K309R counted along it

SMILES | TI normalized to Arabidopsis HPPD (Picrophilus HPPD) | Normalized tolerance index (TI) [1] | TI normalized to Arabidopsis HPPD [1] | Normalized tolerance index (TI) (Hordeum HPPD R309K) | Normalized tolerance index (TI) (Hordeum HPPD L320Q) | TI normalized to Arabidopsis HPPD (Avena HPPD) | TI normalized to Arabidopsis HPPD [2] | TI normalized to Arabidopsis HPPD (Kordia HPPD) | TI normalized to Arabidopsis HPPD (Rhodococcus HPPD2) | TI normalized to Arabidopsis HPPD (Lolium HPPD) | TI normalized to Arabidopsis HPPD (Rhodococcus HPPD1) | TI normalized to Arabidopsis HPPD (Synechococcus HPPD) | Normalized tolerance index (TI) [3] | Ki [1] [nM] | TI (tolerance index) [1] | Ki [3] [nM] | TI (tolerance index) [3]
CS(=O)(=O)c1ccc(C(=O)C2C(=O)CCCC2=O)c(Cl)c1COCC(F)(F)F [Inhibitor 4, 2-[2-chloro-4-methylsulfonyl-3-(2,2,2-trifluoroethoxymethyl)benzoyl]cyclohexane-1,3-dione] | 0.4 | 1 | 1 | 4.6 | 1 | 3 | 0.1 | 0.1 | 0.5 | 2.6 | 0.6 | 0.1 | 1 |  |  |  | 
COCCOCc1nc(C(F)(F)F)ccc1C(=O)C1=C(O)C2CCC(C2)C1=O (centres unmarked) [Inhibitor 3, 2-hydroxy-3-[2-(2-methoxyethoxymethyl)-6-(trifluoromethyl)pyridine-3-carbonyl]bicyclo[3.2.1]oct-2-en-4-one] | 7.8 | 1 | 1 | 2.5 | 1.1 | 2.5 | 0.2 | 0.3 | 1.3 | 2.5 | 1.2 | 0.0 | 1 |  |  |  | 
CS(=O)(=O)c1ccc(C(=O)C2C(=O)CCCC2=O)c([N+](=O)[O-])c1 [Inhibitor 2, 2-(4-methylsulfonyl-2-nitro-benzoyl)cyclohexane-1,3-dione] | 0.2 | 1 | 1 | 1.3 | 0.3 | 3 | 0.9 | 0.1 | 0.3 | 2.6 | 0.3 | 2.1 | 1 | 36 | 3.6E−2 | 73 | 3.2E−2
Cc1c(C(=O)c2cnn(C)c2O)ccc(S(C)(=O)=O)c1C1=NOCC1 [Inhibitor 1, [3-(4,5-dihydroisoxazol-3-yl)-2-methyl-4-methylsulfonyl-phenyl]-(5-hydroxy-1-methyl-pyrazol-4-yl)methanone] | 10.4 | 1 | 1 | 1.5 | 1.2 | 1.6 | 3.7 | 3.2 | 19.3 | 1.7 | 18.9 | 6.7 | 1 |  | 9.5E−4 | 7.9 | 3.5E−3
